From patent US10770169B2, “Method of providing a treatment to a subject based on a dynamic pathway map” (THE REGENTS OF THE UNIVERSITY OF CALIFORNIA, priority 2010, dated 2020)
Read-outs that look alike come from different tables or passages of the source.

Key:
[1] = system: luminal, basal, claudin-low and ERBB2AMP breast cancer cell lines; test: Associations of clinically relevant subtypes and response (non-parametric ANOVA or t-test on GI50 ranks); type: cell-based, human; settings: Table 6; most sensitive subtype, FDR p<0.20
Outline: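 GI50 values were compared between cell-line subtype groups by non-parametric ANOVA or t-test on ranks. P-values from three test sets were combined and FDR-corrected. Significant three-group effects were followed by post-hoc comparison of each group against all others, and FDR p<0.20 counted as significant.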

[2] = system: panel of 55 breast cancer cell lines; test: Cell growth inhibition assay (Cell Titer Glo, 72 h, 9 doses; GI50, TGI, LC50); type: cell-based, human; settings: Homo sapiens, read-out: GI50 (converted)

CS(=O)(=O)CCNCc1ccc(-c2ccc3ncnc(Nc4ccc(OCc5cccc(F)c5)c(Cl)c4)c3c2)o1 [Lapatinib]
Subtype specificity [1]: Luminal/ERBB2AMP
GI50 ([2]; AU565, cell line AU565, censored GI50 values): 0.398 µM
GI50 ([2]; AU565, cell line AU565): 0.398 µM
GI50 ([2]; BT-20, cell line BT20): 16.6 µM
GI50 ([2]; BT-474, cell line BT474, censored GI50 values): 0.398 µM
GI50 ([2]; BT-474, cell line BT474): 0.398 µM
GI50 ([2]; BT-483, cell line BT483): 16.6 µM
GI50 ([2]; BT-549, cell line BT549): 16.6 µM
GI50 ([2]; CAMA-1, cell line CAMA1): 16.6 µM
GI50 ([2]; HCC38, cell line HCC38): 16.6 µM
GI50 ([2]; HCC70, cell line HCC70): 11 µM
GI50 ([2]; HCC202, cell line HCC202, censored GI50 values): 0.759 µM
GI50 ([2]; HCC202, cell line HCC202): 0.759 µM
GI50 ([2]; HCC1143, cell line HCC1143): 16.6 µM
GI50 ([2]; HCC1187, cell line HCC1187): 16.6 µM
GI50 ([2]; HCC1395, cell line HCC1395): 16.6 µM
GI50 ([2]; HCC1419, cell line HCC1419, censored GI50 values): 0.269 µM
GI50 ([2]; HCC1419, cell line HCC1419): 0.269 µM
GI50 ([2]; HCC1428, cell line HCC1428): 16.6 µM
GI50 ([2]; HCC1500, cell line HCC1500): 16.6 µM
GI50 ([2]; HCC1806, cell line HCC1806): 16.6 µM
GI50 ([2]; HCC1937, cell line HCC1937): 16.6 µM
GI50 ([2]; HCC1954, cell line HCC1954, censored GI50 values): 2.75 µM
GI50 ([2]; HCC1954, cell line HCC1954): 2.75 µM
GI50 ([2]; MCF7, cell line MCF7): 16.6 µM
GI50 ([2]; MDA-MB-157, cell line MDAMB157): 16.6 µM
GI50 ([2]; MDA-MB-175-VII, cell line MDAMB175VII, censored GI50 values): 0.933 µM
GI50 ([2]; MDA-MB-231, cell line MDAMB231): 16.6 µM
GI50 ([2]; MDA-MB-361, cell line MDAMB361, censored GI50 values): 8.91 µM
GI50 ([2]; MDA-MB-361, cell line MDAMB361): 8.91 µM
GI50 ([2]; MDA-MB-436, cell line MDAMB436): 16.6 µM
GI50 ([2]; MDA-MB-453, cell line MDAMB453, censored GI50 values): 8.91 µM
GI50 ([2]; MDA-MB-453, cell line MDAMB453): 8.91 µM
GI50 ([2]; MDA-MB-468, cell line MDAMB468): 16.6 µM
GI50 ([2]; SK-BR-3, cell line SKBR3, censored GI50 values): 0.513 µM
GI50 ([2]; SK-BR-3, cell line SKBR3): 0.513 µM
GI50 ([2]; SUM52PE, cell line SUM52PE): 16.6 µM
GI50 ([2]; SUM225CWN, cell line SUM225CWN, censored GI50 values): 0.692 µM
GI50 ([2]; SUM225CWN, cell line SUM225CWN): 0.692 µM
GI50 ([2]; T47D, cell line T47D): 16.6 µM
GI50 ([2]; UACC-812, cell line UACC812, censored GI50 values): 0.457 µM
GI50 ([2]; UACC-812, cell line UACC812): 0.457 µM
GI50 ([2]; UACC-893, cell line UACC893, censored GI50 values): 1.82 µM
GI50 ([2]; UACC-893, cell line UACC893): 1.82 µM
GI50 ([2]; ZR-75-1, cell line ZR751): 16.6 µM
GI50 ([2]; ZR-75B, cell line ZR75B): 16.6 µM
GI50 ([2]; cell line 600MPE): 16.6 µM
GI50 ([2]; cell line HCC2185, censored GI50 values): 3.8 µM
GI50 ([2]; cell line HCC2185): 3.8 µM
GI50 ([2]; cell line HCC3153): 16.6 µM
GI50 ([2]; cell line MDAMB175V): 0.933 µM
GI50 ([2]; cell line SUM1315MO): 15.5 µM

CCN(CC)CCCCNc1ncc2cc(-c3cc(OC)cc(OC)c3)c(NC(=O)NC(C)(C)C)nc2n1 [PD173074]
Subtype specificity [1]: Claudin-low
GI50 ([2]; 600MPE cell line, censored GI50 values): 9.77 µM
GI50 ([2]; AU565, AU565 cell line, censored GI50 values): 7.41 µM
GI50 ([2]; AU565, cell line AU565): 7.41 µM
GI50 ([2]; BT-20, BT20 cell line, censored GI50 values): 15.8 µM
GI50 ([2]; BT-20, cell line BT20): 15.8 µM
GI50 ([2]; BT-474, cell line BT474): 33.1 µM
GI50 ([2]; BT-549, BT549 cell line, censored GI50 values): 7.41 µM
GI50 ([2]; BT-549, cell line BT549): 7.41 µM
GI50 ([2]; HCC38, cell line HCC38): 2.95 µM
GI50 ([2]; HCC70, cell line HCC70): 7.08 µM
GI50 ([2]; HCC202, cell line HCC202): 8.51 µM
GI50 ([2]; HCC1143, HCC1143 cell line, censored GI50 values): 13.5 µM
GI50 ([2]; HCC1143, cell line HCC1143): 13.5 µM
GI50 ([2]; HCC1187, HCC1187 cell line, censored GI50 values): 10.7 µM
GI50 ([2]; HCC1187, cell line HCC1187): 10.7 µM
GI50 ([2]; HCC1395, HCC1395 cell line, censored GI50 values): 0.617 µM
GI50 ([2]; HCC1395, cell line HCC1395): 0.617 µM
GI50 ([2]; HCC1419, HCC1419 cell line, censored GI50 values): 4.47 µM
GI50 ([2]; HCC1419, cell line HCC1419): 4.47 µM
GI50 ([2]; HCC1428, HCC1428 cell line, censored GI50 values): 6.76 µM
GI50 ([2]; HCC1428, cell line HCC1428): 6.76 µM
GI50 ([2]; HCC1500, cell line HCC1500): 24.5 µM
GI50 ([2]; HCC1806, HCC1806 cell line, censored GI50 values): 5.01 µM
GI50 ([2]; HCC1806, cell line HCC1806): 5.01 µM
GI50 ([2]; HCC1937, HCC1937 cell line, censored GI50 values): 7.59 µM
GI50 ([2]; HCC1937, cell line HCC1937): 7.59 µM
GI50 ([2]; HCC1954, HCC1954 cell line, censored GI50 values): 7.59 µM
GI50 ([2]; HCC1954, cell line HCC1954): 7.59 µM
GI50 ([2]; MDA-MB-157, cell line MDAMB157): 2.34 µM
GI50 ([2]; MDA-MB-231, cell line MDAMB231): 6.76 µM
GI50 ([2]; MDA-MB-361, cell line MDAMB361): 15.1 µM
GI50 ([2]; MDA-MB-436, cell line MDAMB436): 6.46 µM
GI50 ([2]; MDA-MB-453, cell line MDAMB453): 1.95 µM
GI50 ([2]; MDA-MB-468, cell line MDAMB468): 6.61 µM
GI50 ([2]; SK-BR-3, cell line SKBR3): 7.94 µM
GI50 ([2]; SUM52PE, cell line SUM52PE): 0.0229 µM
GI50 ([2]; SUM149PT, cell line SUM149PT): 9.12 µM
GI50 ([2]; SUM-159-PT, cell line SUM159PT): 6.46 µM
GI50 ([2]; T47D, cell line T47D): 13.5 µM
GI50 ([2]; UACC-812, cell line UACC812): 7.08 µM
GI50 ([2]; UACC-893, cell line UACC893): 6.92 µM
GI50 ([2]; ZR-75-1, cell line ZR751): 15.5 µM
GI50 ([2]; cell line 600MPE): 9.77 µM
GI50 ([2]; cell line HCC2185): 29.5 µM
GI50 ([2]; cell line HCC3153): 15.5 µM
GI50 ([2]; cell line LY2): 7.41 µM
GI50 ([2]; cell line MDAMB134V): 18.6 µM
GI50 ([2]; cell line SUM1315MO): 3.39 µM
